± gives the expanded uncertainty stated by the source.
How the values were obtained:
[1] = for viscosity / mass density: 100 kPa, Liquid; for mass density: Vibrating tube method; for surface tension liquid-gas: Drop volume
[2] = refractive index (Na D-line) (dimensionless); settings: 101.33 kPa, Liquid, Standard Abbe refractometry
[3] = xn = mol fraction of the nth substance listed; settings: x2 = 0; for mass density / viscosity: 100 kPa, Liquid; for mass density: Vibrating tube method
[4] = refractive index (Na D-line) (dimensionless); xn = mol fraction of the nth substance listed; settings: 100 kPa, Liquid, Standard Abbe refractometry, x2 = 0

CC12CC3CC(C)(C1)CC(C)(C3)C2 [1,3,5-trimethyladamantane]
Settings	mass density, [1] [kg/m3]	refractive index, [2]	surface tension liquid-gas, [1] [mN/m]	viscosity, [1] [mPa·s]
293.15 K	887.48 ± 0.13	1.4736 ± 0.001	–	2.601 ± 0.041
298.15 K	883.99 ± 0.13	1.4715 ± 0.001	26.17 ± 0.15	2.338 ± 0.037
303.15 K	880.47 ± 0.13	1.4695 ± 0.001	–	2.118 ± 0.033
308.15 K	876.94 ± 0.13	–	–	1.93 ± 0.03
313.15 K	873.4 ± 0.13	1.4649 ± 0.001	–	1.765 ± 0.028
318.15 K	869.86 ± 0.13	–	–	1.621 ± 0.025
323.15 K	866.31 ± 0.13	1.4612 ± 0.001	–	1.494 ± 0.024
328.15 K	862.76 ± 0.13	–	–	1.384 ± 0.022
333.15 K	859.2 ± 0.14	1.4568 ± 0.001	–	1.284 ± 0.021

CC12CC3CC(C1)CC(C)(C3)C2 [1,3-dimethyladamantane]
Settings	mass density, [1] [kg/m3]	refractive index, [2]	surface tension liquid-gas, [1] [mN/m]	viscosity, [1] [mPa·s]
293.15 K	901.58 ± 0.12	1.4776 ± 0.001	–	3.764 ± 0.059
298.15 K	898.04 ± 0.12	1.4757 ± 0.001	27.88 ± 0.15	3.345 ± 0.052
303.15 K	894.48 ± 0.12	1.4734 ± 0.001	–	3.004 ± 0.047
308.15 K	890.92 ± 0.12	–	–	2.711 ± 0.042
313.15 K	887.35 ± 0.12	1.4691 ± 0.001	–	2.458 ± 0.038
318.15 K	883.77 ± 0.12	–	–	2.237 ± 0.035
323.15 K	880.19 ± 0.12	1.4651 ± 0.001	–	2.045 ± 0.032
328.15 K	876.6 ± 0.13	–	–	1.876 ± 0.029
333.15 K	873.01 ± 0.13	1.461 ± 0.001	–	1.728 ± 0.027

CC12CC3CC(C1)CC(C)(C3)C2 [1,3-dimethyladamantane] + OCC1CCCCC1
Settings	mass density, [3] [kg/m3]	refractive index, [4]	viscosity, [3] [mPa·s]
293.15 K	901.58 ± 0.12	1.4776 ± 0.001	3.764 ± 0.059
298.15 K	898.04 ± 0.12	1.4757 ± 0.001	3.345 ± 0.052
303.15 K	894.48 ± 0.12	1.4734 ± 0.001	3.004 ± 0.047
308.15 K	890.92 ± 0.12	–	2.711 ± 0.042
313.15 K	887.35 ± 0.12	1.4691 ± 0.001	2.458 ± 0.038
318.15 K	883.77 ± 0.12	–	2.237 ± 0.035
323.15 K	880.19 ± 0.12	1.4651 ± 0.001	2.045 ± 0.032
328.15 K	876.6 ± 0.13	–	1.876 ± 0.029
333.15 K	873.01 ± 0.13	1.461 ± 0.001	1.728 ± 0.027

Settings	surface tension liquid-gas [mN/m]
[3], 298.15 K, Drop volume	27.88 ± 0.15

CCC12CC3CC(CC(C3)C1)C2 [1-ethyladamantane]
Settings	mass density, [1] [kg/m3]	refractive index, [2]	surface tension liquid-gas, [1] [mN/m]	viscosity, [1] [mPa·s]
293.15 K	937.11 ± 0.15	1.4927 ± 0.001	–	6.371 ± 0.1
298.15 K	933.58 ± 0.15	1.4906 ± 0.001	29.87 ± 0.18	5.565 ± 0.088
303.15 K	929.99 ± 0.15	1.4884 ± 0.001	–	4.903 ± 0.078
308.15 K	926.4 ± 0.15	–	–	4.348 ± 0.069
313.15 K	922.81 ± 0.15	1.4839 ± 0.001	–	3.878 ± 0.061
318.15 K	919.21 ± 0.15	–	–	3.478 ± 0.055
323.15 K	915.62 ± 0.15	1.4802 ± 0.001	–	3.134 ± 0.05
328.15 K	912.01 ± 0.15	–	–	2.838 ± 0.045
333.15 K	908.41 ± 0.15	1.4759 ± 0.001	–	2.581 ± 0.041

OCC1CCCCC1 [cyclohexylmethanol]
Settings	mass density, [1] [kg/m3]	refractive index, [2]	surface tension liquid-gas, [1] [mN/m]	viscosity, [1] [mPa·s]
293.15 K	929.76 ± 0.13	1.4629 ± 0.001	–	37.75 ± 0.59
298.15 K	926.25 ± 0.13	1.4612 ± 0.001	32.43 ± 0.18	28.67 ± 0.45
303.15 K	922.71 ± 0.13	1.4592 ± 0.001	–	22.34 ± 0.35
308.15 K	919.14 ± 0.13	–	–	17.57 ± 0.28
313.15 K	915.53 ± 0.13	1.455 ± 0.001	–	14.09 ± 0.22
318.15 K	911.88 ± 0.13	–	–	11.43 ± 0.18
323.15 K	908.19 ± 0.13	1.4507 ± 0.001	–	9.354 ± 0.15
328.15 K	904.45 ± 0.13	–	–	7.766 ± 0.12
333.15 K	900.67 ± 0.13	1.4463 ± 0.001	–	6.462 ± 0.1
